Experiment: recombinant barcode read abundance after kanamycin selection (control-corrected) (log10(CPM+1)); higher = more efficient recombination; sequences stand for … in AGTGCAGAGAAAATCGGCCAGTTTTCTCTGCCTGCAGTCCGCATGCCGT…AGATTTATGCAGCGGACTGCCTTTCTCCCAAAGTGATAAACCGGACAGTATCATGGACCGGTTTTCCCGGTAATCCGTATTTGCAAGGTTGGTTTCACT; site = the 11-nt target
Experimental: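 Pooled E. coli target-specificity screen for the IS621 bridge recombinase. Each library plasmid pairs an 11-nt target (CT core) with a bridge RNA whose target-binding loop (9-nt LTG + 4-nt RTG) is reprogrammed; the rest of the 177-nt WT IS621 bridge RNA scaffold is fixed. The plasmid is co-electroporated with a WT donor plasmid; recombinase is induced with 0.1 mM IPTG and recombinants are selected on kanamycin. Recombinant barcodes are sequenced, converted to CPM, averaged over two biological replicates and corrected by the unselected control CPM. Molecule = full bridge RNA written as DNA: LTG = specificity nt 1-9, RTG = reverse complement of specificity nt 8-11, in the WT scaffold.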
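Note: IS621 recombinase and bridge RNA in Escherichia coli cells.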

Row | Sequence | recombinant barcode read abundance (log10)
1 | ACATGTCCTTGGGTTCTAACCTGTTGCGT (site ACATGTCCTAA) | 0.141
2 | AAAATACCTTGGGTTCTAACCTGTTGCGG (site CAAAGACCTCC) | 0.12
3 | TATAACACTTGGGTTCTAACCTGTTGCCG (site TATAACACTCG) | 0.246
4 | CAGTTGGCTTGGGTTCTAACCTGTTGCCT (site CAGTTGGCTAG) | 1.01
5 | TAGACATCTTGGGTTCTAACCTGTTGCTC (site TAGACATCTGA) | 0.323
6 | CTCTAACCTTGGGTTCTAACCTGTTGCGT (site CTCTACCCTAC) | 0.0519
7 | CTAATTCCTTGGGTTCTAACCTGTTGCAT (site CTAATTCCTAT) | 0.252
8 | CTCTAGTCTTGGGTTCTAACCTGTTGCTT (site CTCTAGTCTAT) | 0.755
9 | AGCCGCCCTTGGGTTCTAACCTGTTGCAT (site AGCCGCCCTAT) | 0.172
10 | CGGGCGTCTTGGGTTCTAACCTGTTGCTT (site CGGGCGTCTAA) | 1.46
11 | TGAAGTACTTGGGTTCTAACCTGTTGCCT (site TGAATTACTAG) | 0
12 | CAAAGTCCTTGGGTTCTAACCTGTTGCCT (site CAAAGTCCTAT) | 0.0828
13 | GATACGTCTTGGGTTCTAACCTGTTGCCT (site GATACGGCTAG) | 0.195
14 | CAATCGTCTTGGGTTCTAACCTGTTGCGG (site CAATCGTCTCC) | 1.68
15 | AATAGTGCTTGGGTTCTAACCTGTTGCCT (site AGTAGTGCTAG) | 0.176
16 | GAGGCTCCTTGGGTTCTAACCTGTTGCCC (site GAGGCTCCTCG) | 0.174
17 | TCTCGATCTTGGGTTCTAACCTGTTGCAT (site CCTCGATCTAT) | 0.0525
18 | GAAAAGGCTTGGGTTCTAACCTGTTGCCT (site GAAACGGCTAG) | 0.105
19 | AGTAAGACTTGGGTTCTAACCTGTTGCCT (site AGTAAGACTAT) | 0.2
20 | GTGTCATCTTGGGTTCTAACCTGTTGCCT (site GTGTCATCTAG) | 0.935
21 | TACTTAACTTGGGTTCTAACCTGTTGCCT (site TACTAAACTAG) | 0.119

Row | Sequence | recombinant barcode read abundance (log10)
22 | CTACACTCTTGGGTTCTAACCTGTTGCCT (site CCACACTCTAG) | 0.409
23 | AACGCCTCTTGGGTTCTAACCTGTTGCCT (site AACGCCTCTAG) | 0.389
24 | GTACAATCTTGGGTTCTAACCTGTTGCAG (site CATAGTCCTTG) | 0
25 | GGTAAGACTTGGGTTCTAACCTGTTGCGG (site GCTAAGACTCA) | 0.0264
26 | TCCTGTACTTGGGTTCTAACCTGTTGCAT (site TCCCGTACTAT) | 0.705
27 | CATTCCTCTTGGGTTCTAACCTGTTGCCT (site CTTTCCTCTAG) | 0.0613
28 | TAGCATACTTGGGTTCTAACCTGTTGCCG (site TAGCATACTTG) | 0.198
29 | GAGCCGGCTTGGGTTCTAACCTGTTGCTT (site GAGGCGGCTAA) | 0.3
30 | ATGGCCTCTTGGGTTCTAACCTGTTGCCT (site ATGCCCTCTAG) | 0.0852
31 | CGAGGGTCTTGGGTTCTAACCTGTTGCTT (site TGAGGGTCTAA) | 0.147
32 | ACCAAGTCTTGGGTTCTAACCTGTTGCGT (site ACCAAGTCTGC) | 0.326
33 | ATCGGGCCTTGGGTTCTAACCTGTTGCCT (site ATCGGGCCTAG) | 0.47
34 | CTAAATACTTGGGTTCTAACCTGTTGCCG (site CTAAATACTCG) | 0.154
35 | CGCAGCTCTTGGGTTCTAACCTGTTGCCT (site CGTAGCTCTAG) | 0.511
36 | GTGTACCCTTGGGTTCTAACCTGTTGCGT (site GTGTACCCTAC) | 3.59
37 | CTGGCTCCTTGGGTTCTAACCTGTTGCTT (site CTGGTTCCTAG) | 0.0218
38 | TACGTGTCTTGGGTTCTAACCTGTTGCCT (site TACGTGTCTAG) | 2.4
39 | CCAAGGACTTGGGTTCTAACCTGTTGCCT (site CCATGGACTAG) | 0.0382
40 | CGATTATCTTGGGTTCTAACCTGTTGCCT (site CGATTAACTAG) | 0.25
41 | TTAGGTCCTTGGGTTCTAACCTGTTGCAG (site TTAGATCCTAT) | 0.182
42 | GAGGGTCCTTGGGTTCTAACCTGTTGCAT (site GAGGGTCCTAG) | 1.65

Row | Sequence | recombinant barcode read abundance (log10)
43 | CTACGTACTTGGGTTCTAACCTGTTGCCT (site ATACGTACTAG) | 0.00899
44 | CATCCGACTTGGGTTCTAACCTGTTGCCT (site CATCCGACTAG) | 0.92
45 | CTGTCGACTTGGGTTCTAACCTGTTGCCT (site CTGTCGACTAG) | 0.286
46 | ACCTTGCCTTGGGTTCTAACCTGTTGCTA (site TGGAGAGCTCT) | 0.0461
47 | CACGAGACTTGGGTTCTAACCTGTTGCCT (site CACGAGACTAG) | 2.05
48 | GTTTAATCTTGGGTTCTAACCTGTTGCCT (site GTTTAGTCTAG) | 0.233
49 | ACACGGACTTGGGTTCTAACCTGTTGCTA (site GTGGTACCTAT) | 0.0282
50 | CTAGTCCCTTGGGTTCTAACCTGTTGCCG (site TTAGTCCCTCG) | 0.176
51 | TCGAAGGCTTGGGTTCTAACCTGTTGCCT (site TCGAAGGCTAG) | 0.382
52 | ATTTGCACTTGGGTTCTAACCTGTTGCCT (site ATTTGCACTAG) | 0.184
53 | TATGTAGCTTGGGTTCTAACCTGTTGCCG (site TATGTAGCTCG) | 1.04
54 | ATTGAGACTTGGGTTCTAACCTGTTGCTT (site GAGAGTCCTTG) | 0.0837
55 | CCGTATGCTTGGGTTCTAACCTGTTGCCT (site CCGAATGCTAG) | 0.234
56 | CCGTCACCTTGGGTTCTAACCTGTTGCCT (site GCGTCACCTAG) | 0.0965
57 | CTTAGGACTTGGGTTCTAACCTGTTGCCT (site CTTAGGACTGG) | 0.136
58 | GAAGAGGCTTGGGTTCTAACCTGTTGCCA (site TGTCTCCCTAC) | 0.115
59 | TTATAAGCTTGGGTTCTAACCTGTTGCCA (site TTATAAGCTTG) | 0.269
60 | TAGGCTCCTTGGGTTCTAACCTGTTGCAT (site TAGGCTCCTAT) | 1.19
61 | GAGTGGCCTTGGGTTCTAACCTGTTGCAT (site GAGTGGCCTAA) | 0.242
62 | ACATATACTTGGGTTCTAACCTGTTGCTT (site ACATATACTAA) | 0.0772
63 | TTCTGCGCTTGGGTTCTAACCTGTTGCCT (site TTCTGGGCTAG) | 0.0626

Row | Sequence | recombinant barcode read abundance (log10)
64 | ACGGATCCTTGGGTTCTAACCTGTTGCAT (site ACGGATCCTAT) | 2.51
65 | AAGAGAGCTTGGGTTCTAACCTGTTGCCT (site AAGAAAGCTAG) | 0.0985
66 | GTCCCTACTTGGGTTCTAACCTGTTGCCG (site GTCACTACTCG) | 0.12
67 | AGCCGTACTTGGGTTCTAACCTGTTGCCT (site AGGCGTACTAG) | 0.318
68 | TAACGTACTTGGGTTCTAACCTGTTGCAT (site TAACATACTAT) | 0.0677
69 | CTAGGCCCTTGGGTTCTAACCTGTTGCCT (site CTAGGCCCTAA) | 0.584
70 | GTCTTAACTTGGGTTCTAACCTGTTGCCG (site GTCTTGACTTG) | 0.0525
71 | AGCCACCCTTGGGTTCTAACCTGTTGCCT (site AGCCACGCTAG) | 0.265
72 | AACGACGCTTGGGTTCTAACCTGTTGCCT (site ACCGAGGCTAG) | 0.0126
73 | GGCTGATCTTGGGTTCTAACCTGTTGCCT (site AGCTGATCTAG) | 0.126
74 | CTATTTACTTGGGTTCTAACCTGTTGCCT (site CTACTTACTAG) | 0.302
75 | CTTCAACCTTGGGTTCTAACCTGTTGCCT (site CTTCATCCTAG) | 0.139
76 | GCTTGGACTTGGGTTCTAACCTGTTGCAG (site CCTTGGACTTT) | 0.175
77 | GGGTACCCTTGGGTTCTAACCTGTTGCCT (site GAGTACCCTAG) | 0.584
78 | TGTTAGACTTGGGTTCTAACCTGTTGCCT (site TGTTAGTCTCG) | 0.113
79 | CGACCGACTTGGGTTCTAACCTGTTGCAG (site CGATCGACTCT) | 0.158
80 | AATTCAGCTTGGGTTCTAACCTGTTGCCT (site AATTTAGCTAG) | 0.0408
81 | TCAGAGGCTTGGGTTCTAACCTGTTGCTG (site TCGGAGGCTCA) | 0.0529
82 | GAAATGACTTGGGTTCTAACCTGTTGCCT (site GTAATGACTAG) | 0.202

From the supplement of paper PMC11208160
